From ChEMBL document CHEMBL3875198, “Synthesis and biological properties of galactofuranosyl-containing fluorescent dyes” (Bioorg Med Chem Lett, 2017)
The source made the active and inactive calls. No cut-off for these calls is given here.

Columns and labels:
[1] = Cellular uptake in human macrophages infected with amastigote form of Leishmania donovani MHOM/SD/LEM3427 at 80 uM measured after 6 hrs by Hoechst-33342 staining based epifluorescence microscopy; format: ADME, cell-based; conditions: macrophage
[2] = tested on: Leishmania donovani; test: Antileishmanial activity against amastigote form of Leishmania donovani MHOM/SD/LEM3427 infected in human macrophages assessed as reduction in amastigote multiplication at 80 uM measured after 48 hrs; format: functional
[3] = tested on: Leishmania donovani; test: Antileishmanial activity against amastigote form of Leishmania donovani MHOM/SD/LEM3427 infected in human macrophages assessed as reduction in macrophage infection at 80 uM measured after 48 hrs; format: functional
[4] = Drug uptake in human macrophage cytoplasm infected with amastigote form of Leishmania donovani MHOM/SD/LEM3427 at 80 uM measured after 6 to 18 hrs by Hoechst-33342 staining based epifluorescence microscopy; format: ADME
[5] = tested on: Leishmania donovani; test: Antileishmanial activity against amastigote form of Leishmania donovani MHOM/SD/LEM3427 infected in human macrophages assessed as phenotypic surface alterations by MGG-staining based analysis; format: functional

| Compound | Drug uptake [1] | Activity [2] | Activity [3] | Drug uptake [4] | Activity [5] |
| --- | --- | --- | --- | --- | --- |
| CC/N=c1/cc2oc3cc(NCC)c(C)cc3c(-c3ccccc3C(=O)NCCCCCCO[C@@H]3O[C@@H]([C@H](O)CO)[C@H](O)[C@H]3O)c-2cc1C.Cl | Active | Active | Active | Active | – |
| O=C(O)c1cc(NC(=S)NCCCCCCO[C@@H]2O[C@@H]([C@H](O)CO)[C@H](O)[C@H]2O)ccc1-c1c2ccc(=O)cc-2oc2cc(O)ccc12 | Active | – | – | Active | – |
| CC/N=c1\cc2oc3cc(NCC)c(C)cc3c(-c3ccccc3C(=O)OCC)c-2cc1C.Cl [RHODAMINE 6G HYDROCHLORIDE] | Active | – | – | Active | Active |
